# Assays:
# BCL6 [1] = target: T1, BCL6 (Homo sapiens (Human), UniProt P41182); test: BCL6 TR-FRET assay (BCL6-Avitag-Biotin / BCoR-Cy5 peptide); assay type: binding
# Outline: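 After 30 min room-temperature preincubation of compound titrations with 2 nM biotinylated BCL6-Avitag, 100 nM Cy5-labelled BCoR peptide plus 2 nM Eu-streptavidin were added and TR-FRET read 2 h later. HEPES pH 7.5/125 mM NaCl buffer with Triton X, glutathione (or DTT) and BSA.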
# BCL6 [2] = target: T1, BCL6; test: Immunofluorescence high content imaging of BCL6 degradation in T47D cells; assay type: cell-based; details: for Dmax: T47D
# Outline: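 T47D cells were treated 3 days at 37 °C with an 11-point 3-fold dilution series (top 0.1 or 1 μM), then fixed, permeabilized and immunostained for BCL6 with Alexa-488 secondary, CellMask and Hoechst. BCL6 signal was imaged at 10×, 4 fields/well, with top-hat smoothing.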
Structure (SMILES),IC50 (BCL6 [1]; read-out: IC50),Dmax (BCL6 [2]),EC50 (BCL6 [1]),IC50 (BCL6 [2]),"IC50 (BCL6 [1]; class symbols A-D, read-out: IC50 (nM)***)","Dmax (BCL6 [2]; maximum, class symbols A-C)","DC50 (BCL6 [2]; class symbols A-D, read-out: EC50 (nM)*)"
"CNC(=O)COc1cc2cc(Nc3nc(N4CCC(O[C@H]5C[C@@H](Oc6cccc7c6C(=O)N(C6CCC(=O)NC6=O)C7=O)CN(C)C5)CC4)ncc3Cl)ccc2n(C(C)C)c1=O (stereo partly drawn) [compound 477, 2-[(6-{[5-chloro-2-(4-{[(3S,5R)-5-{[2-(2,6-dioxopiperidin-3-yl)-1,3-dioxo-2,3-dihydro-1H-isoindol-4-yl]oxy}-1-methylpiperidin-3-yl]oxy}piperidin-1-yl)pyrimidin-4-yl]amino}-2-oxo-1-(propan-2-yl)-1,2-dihydroquinolin-3-yl)oxy]-N-methylacetamide]",10 to 50 nM,< 50%,–,–,–,–,–
"CNC(=O)COc1cc2cc(Nc3nc(N4CCC(CN5CCC6(CC5)CCN(c5ccc7c(c5)C(=O)N(C5CCC(=O)NC5=O)C7=O)CC6)CC4)ncc3Cl)ccc2n(C(C)C)c1=O (centres unmarked) [compound 495, 2-{[6-({5-chloro-2-[4-({9-[2-(2,6-dioxopiperidin-3-yl)-1,3-dioxo-2,3-dihydro-1H-isoindol-5-yl]-3,9-diazaspiro[5.5]undecan-3-yl}methyl)piperidin-1-yl]pyrimidin-4-yl}amino)-2-oxo-1-(propan-2-yl)-1,2-dihydroquinolin-3-yl]oxy}-N-methylacetamide]",< 10 nM,50 to 70%,–,–,–,–,–
"CNC(=O)COc1cc2cc(Nc3nc(N4CCN5CCN(c6ccc7c(c6)C(=O)N(C6CCC(=O)NC6=O)C7=O)CC5C4)ncc3Cl)ccc2n(C)c1=O (centres unmarked) [compound 234, 2-((6-((5-chloro-2-(8-(2-(2,6-dioxopiperidin-3-yl)-1,3-dioxoisoindolin-5-yl)octahydro-2H-pyrazino[1,2-a]pyrazin-2-yl)pyrimidin-4-yl)amino)-1-methyl-2-oxo-1,2-dihydroquinolin-3-yl)oxy)-N-methylacetamide]",–,–,< 10 nM,≥ 100 nM,–,–,–
"CNC(=O)COc1cc2cc(Nc3nc(N4CCC5(CCN(CC6CCN(c7cccc8c7C(=O)N(C7CCC(=O)NC7=O)C8=O)CC6)C5)CC4)ncc3Cl)ccc2n(C(C)C)c1=O (centres unmarked) [compound 508, 2-{[6-({5-chloro-2-[2-({1-[2-(2,6-dioxopiperidin-3-yl)-1,3-dioxo-2,3-dihydro-1H-isoindol-4-yl]piperidin-4-yl}methyl)-2,8-diazaspiro[4.5]decan-8-yl]pyrimidin-4-yl}amino)-2-oxo-1-(propan-2-yl)-1,2-dihydroquinolin-3-yl]oxy}-N-methylacetamide]",< 10 nM,≥ 70%,–,–,–,–,–
"CC(=O)COc1cc2cc(Nc3nc(N4CCC(OC5CCN(c6ccc7c(c6)C(=O)N(C6CCC(=O)NC6=O)C7=O)CC5)CC4)ncc3Cl)ccc2n(C)c1=O (centres unmarked) [compound 170, 5-(4-((1-(5-chloro-4-((1-methyl-2-oxo-3-(2-oxopropoxy)-1,2-dihydroquinolin-6-yl)amino)pyrimidin-2-yl)piperidin-4-yl)oxy)piperidin-1-yl)-2-(2,6-dioxopiperidin-3-yl)isoindoline-1,3-dione]",–,–,–,–,10 to 50 nM,< 50%,50 to 100 nM
"CNC(=O)COc1cc2cc(Nc3nc(N4CCC(C5(N6CCC(c7cc(OC)cc(C(=O)NC8CCC(=O)NC8=O)c7F)CC6)CC5)CC4)ncc3Cl)ccc2n(C)c1=O (centres unmarked) [compound 480, 3-[1-(1-{1-[5-chloro-4-({1-methyl-3-[(methylcarbamoyl)methoxy]-2-oxo-1,2-dihydroquinolin-6-yl}amino)pyrimidin-2-yl]piperidin-4-yl}cyclopropyl)piperidin-4-yl]-N-(2,6-dioxopiperidin-3-yl)-2-fluoro-5-methoxybenzamide]",10 to 50 nM,< 50%,–,–,–,–,–
"CNC(=O)COc1cc2cc(Nc3nc(N4CCN(CC5CCN(c6ccc(C(=O)NC7CCC(=O)NC7=O)cc6)CC5)CC4)ncc3Cl)ccc2n(C)c1=O (centres unmarked) [compound 276, 4-[4-({4-[5-chloro-4-({1-methyl-3-[(methylcarbamoyl)methoxy]-2-oxo-1,2-dihydroquinolin-6-yl}amino)pyrimidin-2-yl]piperazin-1-yl}methyl)piperidin-1-yl]-N-(2,6-dioxopiperidin-3-yl)benzamide]",–,< 50%,< 10 nM,≥ 100 nM,–,–,–
"CC(=O)[C@H](C)Oc1cc2cc(Nc3nc(N4CCC(CN5CCN(c6ccc7c(c6)C(=O)N([C@@H]6CCC(=O)NC6=O)C7=O)CC5)CC4)ncc3Cl)ccc2n(C)c1=O [compound 219, 5-(4-((1-(5-chloro-4-((1-methyl-2-oxo-3-(((S)-3-oxobutan-2-yl)oxy)-1,2-dihydroquinolin-6-yl)amino)pyrimidin-2-yl)piperidin-4-yl)methyl)piperazin-1-yl)-2-((R)-2,6-dioxopiperidin-3-yl)isoindoline-1,3-dione]",–,< 50%,> 100 nM,50 to 100 nM,–,–,–
"CNC(=O)COc1cc2cc(Nc3nc(N4CCN(CC5CCN(c6cnc(C(=O)NC7CCC(=O)NC7=O)nc6)CC5)CC4)ncc3Cl)ccc2n(C)c1=O (centres unmarked) [compound 273, 5-[4-({4-[5-chloro-4-({1-methyl-3-[(methylcarbamoyl)methoxy]-2-oxo-1,2-dihydroquinolin-6-yl}amino)pyrimidin-2-yl]piperazin-1-yl}methyl)piperidin-1-yl]-N-(2,6-dioxopiperidin-3-yl)pyrimidine-2-carboxamide]",–,< 50%,10 to 50 nM,50 to 100 nM,–,–,–
"CNC(=O)COc1cc2cc(Nc3nc(N4CCN(CC5CCN(c6ccc(F)c(C(=O)NC7CCC(=O)NC7=O)c6)CC5)CC4)ncc3Cl)ccc2n(C)c1=O (centres unmarked) [compound 277, 5-[4-({4-[5-chloro-4-({1-methyl-3-[(methylcarbamoyl)methoxy]-2-oxo-1,2-dihydroquinolin-6-yl}amino)pyrimidin-2-yl]piperazin-1-yl}methyl)piperidin-1-yl]-N-(2,6-dioxopiperidin-3-yl)-2-fluorobenzamide]",–,< 50%,< 10 nM,10 to 50 nM,–,–,–
"CNC(=O)COc1cc2cc(Nc3nc(N4CCO[C@H](COc5ccc6c(c5)C(=O)N(C5CCC(=O)NC5=O)C6=O)C4)ncc3Cl)ccc2n(C)c1=O (stereo partly drawn) [compound 228, 2-((6-((5-chloro-2-((2S)-2-(((2-(2,6-dioxopiperidin-3-yl)-1,3-dioxoisoindolin-5-yl)oxy)methyl)morpholino)pyrimidin-4-yl)amino)-1-methyl-2-oxo-1,2-dihydroquinolin-3-yl)oxy)-N-methylacetamide]",–,50 to 70%,> 100 nM,≥ 100 nM,–,–,–
"Cn1c(=O)n(CCC(C)(C)O)c2cc(Nc3nc(N4CCN(CC5CCN(c6cccc7c6C(=O)N(C6CCC(=O)NC6=O)C7=O)CC5)CC4)ncc3Cl)ccc21 (centres unmarked) [compound 505, 4-(4-{[4-(5-chloro-4-{[3-(3-hydroxy-3-methylbutyl)-1-methyl-2-oxo-2,3-dihydro-1H-1,3-benzodiazol-5-yl]amino}pyrimidin-2-yl)piperazin-1-yl]methyl}piperidin-1-yl)-2-(2,6-dioxopiperidin-3-yl)-2,3-dihydro-1H-isoindole-1,3-dione]",50 to 100 nM,50 to 70%,–,–,–,–,–
"CNC(=O)COc1cc2cc(Nc3nc(N4CCC(O[C@@H]5C[C@H](Oc6ccc7c(c6)C(=O)N(C6CCC(=O)NC6=O)C7=O)CN(C)C5)CC4)ncc3Cl)ccc2n(C(C)C)c1=O (stereo partly drawn) [compound 461, 2-[(6-{[5-chloro-2-(4-{[(3R,5S)-5-{[2-(2,6-dioxopiperidin-3-yl)-1,3-dioxo-2,3-dihydro-1H-isoindol-5-yl]oxy}-1-methylpiperidin-3-yl]oxy}piperidin-1-yl)pyrimidin-4-yl]amino}-2-oxo-1-(propan-2-yl)-1,2-dihydroquinolin-3-yl)oxy]-N-methylacetamide]",10 to 50 nM,50 to 70%,–,–,–,–,–
"CC(=O)[C@@H](C)Oc1cc2cc(Nc3nc(N4CCC(CN5CCN(c6ccc7c(c6)C(=O)N([C@H]6CCC(=O)NC6=O)C7=O)CC5)CC4)ncc3Cl)ccc2n(C)c1=O [compound 216, 5-(4-((1-(5-chloro-4-((1-methyl-2-oxo-3-(((R)-3-oxobutan-2-yl)oxy)-1,2-dihydroquinolin-6-yl)amino)pyrimidin-2-yl)piperidin-4-yl)methyl)piperazin-1-yl)-2-((S)-2,6-dioxopiperidin-3-yl)isoindoline-1,3-dione]",–,< 50%,> 100 nM,10 to 50 nM,–,–,–
"CNC(=O)COc1cc2cc(Nc3nc(N4CCCN(c5ccc6c(c5)C(=O)N(C5CCC(=O)NC5=O)C6=O)CC4)ncc3Cl)ccc2n(C)c1=O (centres unmarked) [compound 208, 2-((6-((5-chloro-2-(4-(2-(2,6-dioxopiperidin-3-yl)-1,3-dioxoisoindolin-5-yl)-1,4-diazepan-1-yl)pyrimidin-4-yl)amino)-1-methyl-2-oxo-1,2-dihydroquinolin-3-yl)oxy)-N-methylacetamide]",–,50 to 70%,50 to 100 nM,50 to 100 nM,–,–,–
"CNC(=O)COc1cc2cc(Nc3nc(N4CCN(CC5CCN(c6cccc(F)c6C(=O)NC6CCC(=O)NC6=O)CC5)CC4)ncc3Cl)ccc2n(C)c1=O (centres unmarked) [compound 275, 2-[4-({4-[5-chloro-4-({1-methyl-3-[(methylcarbamoyl)methoxy]-2-oxo-1,2-dihydroquinolin-6-yl}amino)pyrimidin-2-yl]piperazin-1-yl}methyl)piperidin-1-yl]-N-(2,6-dioxopiperidin-3-yl)-6-fluorobenzamide]",–,< 50%,10 to 50 nM,< 10 nM,–,–,–
"CNC(=O)COc1cc2cc(Nc3nc(N4CC5CC4CN5CC4CCN(c5ccc6c(c5)C(=O)N(C5CCC(=O)NC5=O)C6=O)CC4)ncc3Cl)ccc2n(C)c1=O (centres unmarked) [compound 195, 2-((6-((5-chloro-2-(5-((1-(2-(2,6-dioxopiperidin-3-yl)-1,3-dioxoisoindolin-5-yl)piperidin-4-yl)methyl)-2,5-diazabicyclo [2.2.1]heptan-2-yl)pyrimidin-4-yl)amino)-1-methyl-2-oxo-1,2-dihydroquinolin-3-yl)oxy)-N-methylacetamide]",–,< 50%,< 10 nM,10 to 50 nM,–,–,–

# From patent US12310975B2, “Modulators of BCL6 proteolysis and associated methods of use” (Arvinas Operations, Inc., priority 2019, dated 2025)
